What is called inhibition is the percentage by which the read-out fell short of the control. A high value points to strong suppression.

The values below come from patent US20240239786A1, “COMPOSITIONS AND METHODS FOR THE TREATMENT AND PREVENTION OF CANCER” (Yale University, priority 2021, published 2024).

In test [1] the test system is PEO4 cells. The experiment in a line: Flow cytometric EdU incorporation (DNA synthesis) assay, PEO4. As to conditions: for time-dependent inhibition of DNA synthesis (EdU-positive cells): 30 μM DB4 or 1 μM triapine, 3, 6, 24 hr. The format is cell-based. On the procedure: Cells were plated for 24 hr and then treated with 50 μM compounds for 72 hr. For a positive control, cells were treated with 1 μM triapine for 72 hr. The percentage of cell survival was determined by the MTS cytotoxicity assay. […] Cells were treated with 50 μM compounds or 1 μM triapine for 24 hr. During the last hour, cells were pulse-labeled with EdU, stained with the Click-iT EdU Alexa Fluor 488 Assay Kit, counterstained with 7-AAD, and subsequently analyzed by flow cytometry. EdU-positive cells were gated to determine the percentage of the S phase cell population. The bivariate plots of Alexa Fluor 488 (EdU-positive) and PE-Cy5 (7-AAD-positive) are shown. […] Cells were treated with 50 μM compounds or 1 μM triapine for 24 hr. During the last hour, cells were pulse-labeled with EdU, stained with the Click-iT EdU Alexa Fluor 488 Assay Kit, counterstained with 7-AAD, and subsequently analyzed by flow cytometry. EdU-positive cells were gated to determine the percentage of the S phase cell population. The percentages of DNA synthesis in cells treated with each of 10 compounds and triapine relative to the DMSO-treated control is calculated and shown. FIG. 2D depicts representative results of dNTP measurement on triapine and DB4 in PEO4 cells. Cells were treated with 1 μM triapine or 50 μM DB4 for 24 hr. Cells were extracted with 65% methanol for determination of each of dNTPs expressed as pmole/10^6 cells. Data are means±SD (N=3). *, p<0.05; **, p<0.01; ***, p<0.001, compared with the DMSO-treated control in each dNTP. […] The percentage of cell survival was determined by the MTS cytotoxicity assay. […]
PEO1 cells were treated with 30 μM DB4 or 1 μM triapine for indicated times, pulsed with EdU for 1 hr and subsequently assayed for DNA synthesis inhibition as described in FIG. 2B. […] Protein was analyzed by western blotting for p-Chk1, p-ATR, p-RPA32, γH2AX, and HSC70. […] DSB end resection is assessed by the level of p-RPA32. […]
A general note: In flow cytometry, cells or beads pass a laser one at a time.

The test system of test [2] is PEO4 cells. The experiment in a line: Caspase 3/7 assay, PEO4. Type of test: cell-based. The note with it: 50 μM olaparib, 24 hr. On the procedure: Cells were pre-treated with 30 μM DB4 for 1 hr and then treated with various concentrations of olaparib for 72 hr. Cell survival was determined by MTS cytotoxicity assay. Data are means±SD (N=3-4). […] EOB calculation was used to quantify the synergy of the combination of DB4 and various concentrations of olaparib in PEO1 or PEO4 cells as shown in FIG. 8A. EOB>0, synergism; EOB=0, additivity; EOB<0, antagonism. […] Cells were pre-treated with 30 μM DB4-F for 1 hr and then treated with various concentrations of olaparib for 72 hr. Cell survival was determined by MTS cytotoxicity assay. Data are means±SD (N=3-4). […] EOB calculation was used to quantify the synergy of the combination of DB4-F and various concentrations of olaparib in PEO1 or PEO4 cells as shown in FIG. 8B. […] Cell survival was determined by MTS cytotoxicity assay. […] Caspase 3/7 activity was expressed as RLU per μg/μl protein. […] Caspase 3/7 activity was expressed as RLU per μg/μl protein. […] Cells were treated and caspase 3/7 activity was measured as described in FIG. 8G and FIG. 8H.
Furthermore, the effects of DB4 on olaparib-induced apoptosis at 24 hr were evaluated. […]
The assay was performed as described previously (Lin Z P et al., 2018, PLOS One, 13:e0207399). […] Total protein concentration of cell lysates was determined as described above. Caspase 3/7 activity was expressed as luminescence units (RLU) per μg/μL protein for each sample.

Turning to `C=CCn1c(SCc2cccc(Cl)c2)nnc1C1CCN(Cc2nc3ccccc3s2)CC1` [DB4, 2-[(4-{4-allyl-5-[(3-chlorobenzyl)thio]-4H-1,2,4-triazol-3-yl}-1-piperidinyl)methyl]-1,3-benzothiazole], in the test on PEO4 cells [1], the “time-dependent inhibition of DNA synthesis (EdU-positive cells)” value is listed as “gradual decline in the EdU-positive cell population”. In the test on PEO4 cells [1] (50 μM, 24 hr), the inhibition at 50 µM was more than 99%. In addition, in the test with PEO4 cells [2] (DB4 starting at 7.5 μM), the “effect on olaparib-induced caspase 3/7 activity” value is given as “markedly augmented”.

On to `O=C(c1cc(Cc2n[nH]c(=O)c3ccccc23)ccc1F)N1CCN(C(=O)C2CC2)CC1` [olaparib, reference compound], for which, in the test on PEO4 cells [2], the “caspase 3/7 activity, olaparib alone” value is recorded as “minor increase in caspase 3/7 activity”.

Turning to `NC(=S)NN=Cc1ncccc1N` [triapine, 3-aminopyridine-2-carboxaldehyde-thiosemicarbazone, reference compound], the “time-dependent inhibition of DNA synthesis (EdU-positive cells)” value with PEO4 cells [1] is listed as “prompt reduction in EdU-positive cells”.
